US20050032187A1, “Novel peptide-forming enzyme, microbe producing the enzyme and method for producing peptide using them” (Ajinomoto Co., Inc., priority 2003, published 2005)
Residues, ends and D or L forms follow the SMILES beside them.

How the values were obtained:
[1] = test system: enzyme (SP-Sepharose HP fraction) derived from Sphingobacterium sp. strain FERM BP-8124; type: biochemical; details: Table 15-2; carboxy 100 mM, L-Gln 150 mM, 0.33 units, pH 9.0, 25° C., 1.5 hours; 0.1% Tween-80 with L-Tyr-OMe
Experimental: The following procedure after centrifugal separation was carried out either on ice or at 4° C. Sphingobacterium sp. strain FERM BP-8124 (Depositary institution: National Institute for Advanced Industrial Science and Technology, International Patent Organism Depositary, Address of depositary institution: Chuo Dai-6,1-1 Higashi 1-Chome, Tsukuba-shi, Ibaraki-ken, Japan, International deposit date: Jul. 22, 2002) was cultured in the same manner as Example 21, and the microbial cells were collected by centrifugal separation (10,000 rpm, 15 minutes). After washing 2 g of microbial cells with 20 mM Tris-HCl buffer (pH 7.6), they were suspended in 8 ml of the same buffer and subjected to ultrasonic crushing treatment for 45 minutes at 195 W. This ultrasonic crushing liquid was then centrifuged (10,000 rpm, 30 minutes) to remove the crushed cell fragments and obtain an ultrasonic crushing liquid supernatant. This ultrasonic crushing liquid supernatant was dialyzed overnight against 20 mM Tris-HCl buffer (pH 7.6) followed by removal of the insoluble fraction by ultracentrifugation (50,000 rpm, 30 minutes) to obtain a soluble fraction in the form of the supernatant liquid. The resulting soluble fraction was applied to a Q-Sepharose HP column (manufactured by Amersham) pre-equilibrated with Tris-HCl buffer (pH 7.6), and the active fraction was collected from the non-adsorbed fraction. This active fraction was dialyzed overnight against 20 mM acetate buffer (pH 5.0) followed by removal of the insoluble fraction by centrifugal separation (10,000 rpm, 30 minutes) to obtain a dialyzed fraction in the form of the supernatant liquid. This dialyzed fraction was then applied to an SP-Sepharose HP column (manufactured by Amersham) pre-equilibrated with 20 mM acetate buffer (pH 5.0) to obtain the active fraction in which enzyme was eluted at a linear concentration gradient of the same buffer containing 0 tol M NaCl.
Substrate specificity was examined for enzyme derived from Sphingobacterium sp. strain FERM BP-8124 (Depositary institution: National Institute for Advanced Industrial Science and Technology, International Patent Organism Depositary, Address of depositary institution: Central. 6, 1-1-1 Higashi, Tsukuba City, Ibaraki Prefecture, Japan, International deposit date: Jul. 22, 2002). 100 μl of 100 mM borate buffer (pH 9.0) containing the various carboxy components at a final concentration of 100 mM and the various amine components at a final concentration of 150 mM shown in Tables 15-1 to 15-4, the SP-Sepharose HP fraction enzyme purified in Example 22 (addition of 0.33 units in the reaction liquid) and 10 mM EDTA were allowed to react at 25° C. for 1.5 hours.
In addition, hydrochlorides were used for all carboxy components. […]

[2] = test system: Empedobacter brevis strain FERM BP-8113 microbial cells; test: Production of peptide using microbial cells of Empedobacter brevis; type: cell-based; details: 1 mL of 100 g/L cell suspension + 1 mL buffer with 200 mM carboxy component (HCl salt) and 400 mM amino acid, 10 mM EDTA, pH 9.0, 18° C., 2 hours
Experimental: Although the following provides a more detailed explanation of the present invention through its examples, the present invention is not limited to these examples. In addition to confirmation by ninhydrin coloring of thin-film chromatograms (qualitative), quantitative determinations were made by the following high-performance liquid chromatography in order to assay products. Column: […] ODS-2 (manufactured by GL Science, Inc.), eluate: aqueous phosphate solution containing 5.0 mM sodium 1-octanesulfonate (pH 2.1): methanol=100: 15 to 50, flow rate: 1.0 mL/min, detection: 210 nanometers (hereinafter, “nm”). A 50 mL medium (pH 6.2) containing 5 grams (hereinafter, “g”) of glucose, 5 g of ammonium sulfate, 1 g of monopotassium phosphate, 3 g of dipotassium phosphate, 0.5 g of magnesium sulfate, 10 g of yeast extract and 10 g of peptone in 1 liter (hereinafter, “L”) was transferred to a 500 mL Sakaguchi flask and sterilized at 115° C. for 15 minutes. This medium was then inoculated with one loopful of the culture broth of Empedobacter brevis strain FERM BP-8113 (Depositary institution: National Institute for Advanced Industrial Science and Technology, International Patent Organism Depositary, Address of depositary institution: Chuo Dai-6,1-1 Higashi 1-Chome, Tsukuba-shi, Ibaraki-ken, Japan, International deposit transfer date: Jul. 8, 2002) that had been cultured at 30° C. for 16 hours in the same medium, followed by shake culturing at 30° C. for 16 hours and 120 strokes/min.

[3] = Comparison of ability to catalyze peptide production with known enzymes; details: 100 mM L-alanine methyl ester, 200 mM L-glutamine, pH 9.0, 25° C.; amount of enzyme added as in Table 14
[4] = test system: Sphingobacterium sp. strain FERM BP-8124 microbial cells; test: Production of L-alanyl-L-glutamine using microbial cells of Sphingobacterium sp.; type: cell-based; details: 0.1 mL of 100 g/L cell suspension + 0.1 mL buffer with 200 mM L-alanyl methyl ester hydrochloride and 400 mM L-glutamine, pH 9.0, 25° C., 120 minutes
Experimental: A 50 ml medium (pH 7.0) containing 5 g of glucose, 5 g of ammonium sulfate, 1 g of monopotassium phosphate, 3 g of dipotassium phosphate, 0.5 g of magnesium sulfate, 10 g of yeast extract and 10 g of peptone in 1 L was transferred to a 500 mL Sakaguchi flask and sterilized at 115° C. for 15 minutes for culturing Sphingobacterium sp. strain FERM BP-8124 (Depositary institution: National Institute for Advanced Industrial Science and Technology, International Patent Organism Depositary, Address of depositary institution: Chuo Dai-6,1-1 Higashi 1-Chome, Tsukuba-shi, Ibaraki-ken, Japan, International deposit date: Jul. 22, 2002). This medium was then inoculated with one loopful of Sphingobacterium sp. strain FERM BP-8124 (Depositary institution: National Institute for Advanced Industrial Science and Technology, International Patent Organism Depositary, Address of depositary institution: Chuo Dai-6,1-1 Higashi 1-Chome, Tsukuba-shi, Ibaraki-ken, Japan, International deposit date: Jul. 22, 2002) cultured at 30° C. for 24 hours in a slant agar medium (agar: 20 g/L, pH 7.0) containing 5 g of glucose, 10 g of yeast extract, 10 g of peptone and 5 g of NaCl in 1 L, followed by shake culturing at 30° C. for 20 hours and 120 strokes/minute. A 1 ml aliquot of this culture broth was then added to the aforementioned medium (50 ml/500 mL Sakaguchi flask) and cultured at 30° C. for 18 hours. […]

Row | Molecule | Produced peptide [1] | Formed peptide [2] | other results
1 | NCC(=O)N[C@@H](CCC(N)=O)C(=O)O [Gly-L-Gln] (H-Gly-Gln-OH) | 61.1 mM | – | –
2 | C[C@H](N)C(=O)N[C@@H](Cc1cnc[nH]1)C(=O)O [L-Ala-L-His] (H-Ala-His-OH) | – | 52.1 mM | –
3 | Ficin | – | – | L-Ala-L-Gln production rate (mM/mm) [3]: 0.0096 mM/mm
4 | CC(C)C[C@H](NC(=O)[C@H](C)N)C(=O)O [L-Ala-L-Leu] (H-Ala-Leu-OH) | – | 38.2 mM | –
5 | NCC(=O)N[C@@H](Cc1cnc[nH]1)C(=O)O [Gly-L-His] (H-Gly-His-OH) | – | 22.1 mM | –
6 | C[C@H](N)C(=O)N[C@@H](CCC(N)=O)C(=O)O [L-Ala-L-Gln, L-alanyl-L-glutamine] (H-Ala-Gln-OH) | – | 68.0 mM | amount of L-alanyl-L-glutamine produced [4]: 62 mM
7 | C[C@H](N)C(=O)N[C@@H](CO)C(=O)O [L-Ala-L-Ser] (H-Ala-Ser-OH) | – | 51.3 mM | –
8 | CSCC[C@H](N)C(=O)N[C@@H](Cc1ccccc1)C(=O)O [L-Met-L-Phe] (H-Met-Phe-OH) | – | 28.5 mM | –
9 | CC(C)C[C@H](NC(=O)[C@@H](N)[C@@H](C)O)C(=O)O [L-Thr-L-Leu] (H-Thr-Leu-OH) | – | 23.0 mM | –
10 | N[C@@H](CO)C(=O)N[C@@H](CO)C(=O)O [L-Ser-L-Ser] (H-Ser-Ser-OH) | – | 29.0 mM | –
11 | C[C@H](N)C(=O)N[C@@H](CCCN=C(N)N)C(=O)O [L-Ala-L-Arg] (H-Ala-Arg-OH) | – | 72.1 mM | –
12 | CSCC[C@H](NC(=O)[C@H](C)N)C(=O)O [L-Ala-L-Met] (H-Ala-Met-OH) | – | 68.3 mM | –
13 | C[C@H](N)C(=O)N[C@@H](Cc1ccccc1)C(=O)O [L-Ala-L-Phe] | – | 62.4 mM | –
14 | Bromelain | – | – | L-Ala-L-Gln production rate (mM/mm) [3]: 0.0062 mM/mm
15 | Chymopapain: thiol endopeptidase described in EP 359399B1, purified enzyme manufactured by Sigma | – | – | L-Ala-L-Gln production rate (mM/mm) [3]: 0.0100 mM/mm
16 | CSCC[C@H](NC(=O)[C@@H](N)C(C)C)C(=O)O [L-Val-L-Met] (H-Val-Met-OH) | – | 10.5 mM | –
17 | CC[C@H](C)[C@H](N)C(=O)N[C@@H](CCSC)C(=O)O [L-Ile-L-Met] (H-Ile-Met-OH) | – | 8.3 mM | –
18 | Carboxypeptidase Y: known enzyme described in EP 278787A1, purified enzyme manufactured by Sigma (protein, UniProt P00729 112-532, looked up) Carboxypeptidase Y: KIKDPKILGIDPNVTQYTGYLDVEDEDKHFFFWTFESRNDPAKDPVILWLNGGPGCSSLTGLFFELGPSSIGPDLKPIGNPYSWNSNATVIFLDQPVNVGFSYSGSSGVSNTVAAGKDVYNFLELFFDQFPEYVNKGQDFHIAGESYAGHYIPVFASEILSHKDRNFNLTSVLIGNGLTDPLTQYNYYEPMACGEGGEPSVLPSEECSAMEDSLERCLGLIESCYDSQSVWSCVPATIYCNNAQLAPYQRTGRNVYDIRKDCEGGNLCYPTLQDIDDYLNQDYVKEAVGAEVDHYESCNFDINRNFLFAGDWMKPYHTAVTDLLNQDLPILVYAGDKDFICNWLGNKAWTDVLPWKYDEEFASQKVRNWTASITDEVAGEVKSYKHFTYLRVFNGGHMVPFDVPENALSMVNEWIHGGFSL | – | – | L-Ala-L-Gln production rate (mM/mm) [3]: 0.0257 mM/mm
19 | Papain: thiol endopeptidase described in EP 359399B1, purified enzyme manufactured by Sigma (protein, UniProt P00784 134-345, looked up) Papain: IPEYVDWRQKGAVTPVKNQGSCGSCWAFSAVVTIEGIIKIRTGNLNEYSEQELLDCDRRSYGCNGGYPWSALQLVAQYGIHYRNTYPYEGVQRYCRSREKGPYAAKTDGVRQVQPYNEGALLYSIANQPVSVVLEAAGKDFQLYRGGIFVGPCGNKVDHAVAAVGYGPNYILIKNSWGTGWGENGYIRIKRGTGNSYGVCGLYTSSFYPVKN | – | – | L-Ala-L-Gln production rate (mM/mm) [3]: 0.0106 mM/mm

Continued, in another order:

Row | Produced peptide [1] | Molecule | Formed peptide [2] | other results
20 | 0.8 mM | NC(=O)CC[C@H](NC(=O)[C@@H](N)Cc1ccccc1)C(=O)O [L-Phe-L-Gln] | – | –
21 | 8.2 mM | CC(C)[C@H](N)C(=O)N[C@@H](CCC(N)=O)C(=O)O [L-Val-L-Gln] (H-Val-Gln-OH) | – | –
22 | 12.9 mM | NC(=O)CC[C@H](NC(=O)[C@@H](N)CO)C(=O)O [L-Ser-L-Gln] (H-Ser-Gln-OH) | – | –
23 | 6.4 mM | CC[C@H](C)[C@H](N)C(=O)N[C@@H](CCC(N)=O)C(=O)O [L-Ile-L-Gln] (H-Ile-Gln-OH) | – | –
24 | 0.6 mM | NC(=O)CC[C@H](NC(=O)[C@@H](N)Cc1ccc(O)cc1)C(=O)O [L-Tyr-L-Gln] (H-Tyr-Gln-OH) | – | –
25 | 1.8 mM | NC(=O)CC[C@H](NC(=O)[C@@H]1CCCN1)C(=O)O [L-Pro-L-Gln] (H-Pro-Gln-OH) | – | –
26 | 0.05 mM | NC(=O)CC[C@H](NC(=O)[C@@H](N)CC(=O)O)C(=O)O [α-L-Asp-L-Gln] (H-Asp-Gln-OH) | – | –
27 | 36.1 mM | C[C@@H](O)[C@H](N)C(=O)N[C@@H](CCC(N)=O)C(=O)O [L-Thr-L-Gln] (H-Thr-Gln-OH) | – | –
28 | 0.1 mM | NC(=O)CC[C@H](NC(=O)[C@@H](N)CCC(N)=O)C(=O)O [L-Gln-L-Gln] (H-Gln-Gln-OH) | – | –
29 | 32.6 mM | CSCC[C@H](N)C(=O)N[C@@H](CCC(N)=O)C(=O)O [L-Met-L-Gln] (H-Met-Gln-OH) | – | –
30 | 17.2 mM | NC(=O)CC[C@H](NC(=O)[C@@H](N)CCCN=C(N)N)C(=O)O [L-Arg-L-Gln] (H-Arg-Gln-OH) | – | –
